Experimental data published in US6914045B2, “Glycopeptide antibiotics” (Wyeth Holdings Corporation, priority 2001, dated 2005).
Converted amounts (≈) assume the structure as drawn.

What was measured:
Test in all cases: in vitro antibacterial evaluation, MIC by broth dilution
Format in all cases: cell-based
Enterococcus sp. = conditions: broth dilution, 18 hours at 35° C.
In short: (§1)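 Test organisms, which included recent clinical isolates resistant to methicillin, penicillin and/or vancomycin, were inoculated at 5×10^5 CFU/mL into Muller-Hinton II […] containing antibiotic at 64-0.06 μg/mL. Minimum inhibitory concentrations were then read as the lowest level inhibiting growth.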

Staphylococcus sp. = conditions: broth dilution, 18 hours at 35° C.
In short: as §1

Streptococcus sp. = conditions: broth dilution, 18 hours at 35° C.
In short: as §1

Escherichia coli = conditions: 18 hours at 35° C.

Question: With `CC(c1ccccc1)C1NC(=O)CNC(=O)C(CO)NC(=O)C(C(O)C2CNC(=N)N2C2OC(CO)C(O)C(O)C2O)NC(=O)C(C(O)C2CNC(=N)N2)NC(=O)C(Cc2ccc(OC3OC(CO)C(OC4OC(COCc5ccc(Oc6ccccc6)cc5)C(O)C(O)C4O)C(O)C3O)cc2)NC1=O` (stereo not shown) [Example 236] as the compound, how does the “MIC Enterococcus avium (GC 4558)” value (Enterococcus sp.) read?
Answer: 2 µg/mL (≈ 1.35 µM)

Question: What about the “MIC Enterococcus faecalis (ATCC 29212)” value (Enterococcus sp.) of the same compound?
Answer: 4 µg/mL (≈ 2.71 µM)

Question: And the “MIC Enterococcus faecalis (GC 2242)” value (Enterococcus sp.)?
Answer: 4 µg/mL (≈ 2.71 µM)

Question: And the “MIC Enterococcus faecalis (GC 2691)” value (Enterococcus sp.)?
Answer: 2 µg/mL (≈ 1.35 µM)

Question: And the “MIC Enterococcus faecalis (GC 3059)” value (Enterococcus sp.)?
Answer: 2 µg/mL (≈ 1.35 µM)

Question: And the “MIC Enterococcus faecalis (GC 4552)” value (Enterococcus sp.)?
Answer: 4 µg/mL (≈ 2.71 µM)

Question: What about the “MIC Enterococcus faecalis (GC 4553)” value (Enterococcus sp.) of the same compound?
Answer: 4 µg/mL (≈ 2.71 µM)

Question: And the “MIC Enterococcus faecalis (GC 4554)” value (Enterococcus sp.)?
Answer: 4 µg/mL (≈ 2.71 µM)

Question: What about the “MIC Enterococcus faecalis (GC 6189)” value (Enterococcus sp.) of the same compound?
Answer: 2 µg/mL (≈ 1.35 µM)

Question: What about the “MIC Enterococcus faecium (GC 2243)” value (Enterococcus sp.) of the same compound?
Answer: 4 µg/mL (≈ 2.71 µM)

Question: And the “MIC Enterococcus faecium (GC 4556)” value (Enterococcus sp.)?
Answer: 4 µg/mL (≈ 2.71 µM)

Question: And the “MIC Enterococcus faecium (GC 4557)” value (Enterococcus sp.)?
Answer: 2 µg/mL (≈ 1.35 µM)

Question: And the “MIC Enterococcus faecalis (ATCC 29212)” value (Enterococcus sp.; strain ATCC 29212)?
Answer: 4 µg/mL (≈ 2.71 µM)

Question: What about the “MIC Enterococcus faecium (GC 2243)” value (Enterococcus sp.; strain GC 2243) of the same compound?
Answer: 4 µg/mL (≈ 2.71 µM)

Question: And the “MIC Enterococcus faecalis (GC 4552)” value (Enterococcus sp.; strain GC 4552)?
Answer: 4 µg/mL (≈ 2.71 µM)

Question: What about the “MIC Enterococcus faecalis (GC 4553)” value (Enterococcus sp.; strain GC 4553) of the same compound?
Answer: 4 µg/mL (≈ 2.71 µM)

Question: What about the “MIC Enterococcus faecalis (GC 4554)” value (Enterococcus sp.; strain GC 4554) of the same compound?
Answer: 4 µg/mL (≈ 2.71 µM)

Question: What about the “MIC Enterococcus faecium (GC 4556)” value (Enterococcus sp.; strain GC 4556) of the same compound?
Answer: 4 µg/mL (≈ 2.71 µM)

Question: And the “MIC Enterococcus faecium (GC 4557)” value (Enterococcus sp.; strain GC 4557)?
Answer: 2 µg/mL (≈ 1.35 µM)

Question: And the “MIC Enterococcus avium (GC 4558)” value (Enterococcus sp.; strain GC 4558)?
Answer: 2 µg/mL (≈ 1.35 µM)

Question: And the “MIC Enterococcus faecalis (GC 6189)” value (Enterococcus sp.; strain GC 6189)?
Answer: 2 µg/mL (≈ 1.35 µM)

Question: What about the “MIC Enterococcus faecalis (GC 2242)” value (Enterococcus sp.; inoculum 5×10^5 CFU/mL, strain GC 2242) of the same compound?
Answer: 4 µg/mL (≈ 2.71 µM)

Question: And the “MIC Enterococcus faecalis (GC 2691)” value (Enterococcus sp.; inoculum 5×10^5 CFU/mL, strain GC 2691)?
Answer: 2 µg/mL (≈ 1.35 µM)

Question: What about the “MIC Enterococcus faecalis (GC 3059)” value (Enterococcus sp.; inoculum 5×10^5 CFU/mL, strain GC 3059) of the same compound?
Answer: 2 µg/mL (≈ 1.35 µM)

Question: And the “MIC Coagulase Negative Staphylococcus (GC 4547)” value (Staphylococcus sp.)?
Answer: 2 µg/mL (≈ 1.35 µM)

Question: What about the “MIC Coagulase Negative Staphylococcus (GC 4548)” value (Staphylococcus sp.) of the same compound?
Answer: 0.5 µg/mL (≈ 0.338 µM)

Question: And the “MIC Coagulase Negative Staphylococcus (GC 4549)” value (Staphylococcus sp.)?
Answer: 0.5 µg/mL (≈ 0.338 µM)

Question: And the “MIC Coagulase Negative Staphylococcus (GC 4551)” value (Staphylococcus sp.)?
Answer: 2 µg/mL (≈ 1.35 µM)

Question: What about the “MIC Coagulase Negative Staphylococcus (GC 6257)” value (Staphylococcus sp.) of the same compound?
Answer: 1 µg/mL (≈ 0.677 µM)

Question: What about the “MIC Staphylococcus aureus (ATCC 29213)” value (Staphylococcus sp.) of the same compound?
Answer: 2 µg/mL (≈ 1.35 µM)

Question: What about the “MIC Staphylococcus aureus (GC 1131)” value (Staphylococcus sp.) of the same compound?
Answer: 2 µg/mL (≈ 1.35 µM)

Question: What about the “MIC Staphylococcus aureus (GC 3051)” value (Staphylococcus sp.) of the same compound?
Answer: 2 µg/mL (≈ 1.35 µM)

Question: And the “MIC Staphylococcus aureus (GC 3053)” value (Staphylococcus sp.)?
Answer: 2 µg/mL (≈ 1.35 µM)

Question: What about the “MIC Staphylococcus aureus (GC 4541)” value (Staphylococcus sp.) of the same compound?
Answer: 2 µg/mL (≈ 1.35 µM)

Question: What about the “MIC Staphylococcus aureus (GC 4542)” value (Staphylococcus sp.) of the same compound?
Answer: 4 µg/mL (≈ 2.71 µM)

Question: And the “MIC Staphylococcus aureus (GC 4544)” value (Staphylococcus sp.)?
Answer: 2 µg/mL (≈ 1.35 µM)

Question: And the “MIC Staphylococcus aureus (GC 4545)” value (Staphylococcus sp.)?
Answer: 2 µg/mL (≈ 1.35 µM)

Question: And the “MIC Staphylococcus aureus-SMITH (GC 4543)” value (Staphylococcus sp.)?
Answer: 2 µg/mL (≈ 1.35 µM)

Question: What about the “MIC Staphylococcus haemolyticus (GC 4546)” value (Staphylococcus sp.) of the same compound?
Answer: 2 µg/mL (≈ 1.35 µM)

Question: What about the “MIC Staphylococcus aureus (ATCC 29213)” value (Staphylococcus sp.; strain ATCC 29213) of the same compound?
Answer: 2 µg/mL (≈ 1.35 µM)

Question: What about the “MIC Staphylococcus aureus (GC 1131)” value (Staphylococcus sp.; strain GC 1131) of the same compound?
Answer: 2 µg/mL (≈ 1.35 µM)

Question: What about the “MIC Staphylococcus aureus (GC 3051)” value (Staphylococcus sp.; strain GC 3051) of the same compound?
Answer: 2 µg/mL (≈ 1.35 µM)

Question: And the “MIC Staphylococcus aureus (GC 3053)” value (Staphylococcus sp.; strain GC 3053)?
Answer: 2 µg/mL (≈ 1.35 µM)

Question: And the “MIC Staphylococcus aureus (GC 4541)” value (Staphylococcus sp.; strain GC 4541)?
Answer: 2 µg/mL (≈ 1.35 µM)

Question: And the “MIC Staphylococcus aureus (GC 4542)” value (Staphylococcus sp.; strain GC 4542)?
Answer: 4 µg/mL (≈ 2.71 µM)

Question: What about the “MIC Staphylococcus aureus-SMITH (GC 4543)” value (Staphylococcus sp.; strain GC 4543) of the same compound?
Answer: 2 µg/mL (≈ 1.35 µM)

Question: What about the “MIC Staphylococcus aureus (GC 4544)” value (Staphylococcus sp.; strain GC 4544) of the same compound?
Answer: 2 µg/mL (≈ 1.35 µM)

Question: What about the “MIC Staphylococcus aureus (GC 4545)” value (Staphylococcus sp.; strain GC 4545) of the same compound?
Answer: 2 µg/mL (≈ 1.35 µM)

Question: And the “MIC Staphylococcus haemolyticus (GC 4546)” value (Staphylococcus sp.; strain GC 4546)?
Answer: 2 µg/mL (≈ 1.35 µM)

Question: What about the “MIC Coagulase Negative Staphylococcus (GC 4547)” value (Staphylococcus sp.; strain GC 4547) of the same compound?
Answer: 2 µg/mL (≈ 1.35 µM)

Question: And the “MIC Coagulase Negative Staphylococcus (GC 4548)” value (Staphylococcus sp.; strain GC 4548)?
Answer: 0.5 µg/mL (≈ 0.338 µM)

Question: What about the “MIC Coagulase Negative Staphylococcus (GC 4549)” value (Staphylococcus sp.; strain GC 4549) of the same compound?
Answer: 0.5 µg/mL (≈ 0.338 µM)

Question: And the “MIC Coagulase Negative Staphylococcus (GC 4551)” value (Staphylococcus sp.; strain GC 4551)?
Answer: 2 µg/mL (≈ 1.35 µM)

Question: And the “MIC Coagulase Negative Staphylococcus (GC 6257)” value (Staphylococcus sp.; strain GC 6257)?
Answer: 1 µg/mL (≈ 0.677 µM)

Question: And the “MIC Streptococcus agalactiae (GC 4564)” value (Streptococcus sp.)?
Answer: 0.12 µg/mL (≈ 0.0812 µM)

Question: And the “MIC Streptococcus pneumoniae (ATCC 6301)” value (Streptococcus sp.)?
Answer: <0.06 µg/mL

Question: And the “MIC Streptococcus pneumoniae (GC 1894)” value (Streptococcus sp.)?
Answer: <0.06 µg/mL

Question: And the “MIC Streptococcus pneumoniae (GC 4565)” value (Streptococcus sp.)?
Answer: <0.06 µg/mL

Question: And the “MIC Streptococcus pyogenes (GC 4563)” value (Streptococcus sp.)?
Answer: <0.06 µg/mL

Question: And the “MIC Streptococcus pneumoniae (ATCC 6301)” value (Streptococcus sp.; inoculum 5×10^5 CFU/mL, strain ATCC 6301)?
Answer: <0.06 µg/mL

Question: And the “MIC Streptococcus pneumoniae (GC 1894)” value (Streptococcus sp.; inoculum 5×10^5 CFU/mL, strain GC 1894)?
Answer: <0.06 µg/mL

Question: What about the “MIC Streptococcus pyogenes (GC 4563)” value (Streptococcus sp.; inoculum 5×10^5 CFU/mL, strain GC 4563) of the same compound?
Answer: <0.06 µg/mL

Question: And the “MIC Streptococcus agalactiae (GC 4564)” value (Streptococcus sp.; inoculum 5×10^5 CFU/mL, strain GC 4564)?
Answer: 0.12 µg/mL (≈ 0.0812 µM)

Question: What about the “MIC Streptococcus pneumoniae (GC 4565)” value (Streptococcus sp.; inoculum 5×10^5 CFU/mL, strain GC 4565) of the same compound?
Answer: <0.06 µg/mL

Question: And the “MIC Escherichia coli (ATCC 25922)” value (Escherichia coli)?
Answer: >64 µg/mL

Question: And the “MIC Escherichia coli (GC 4559)” value (Escherichia coli)?
Answer: >64 µg/mL

Question: What about the “MIC Escherichia coli (GC 4560)” value (Escherichia coli) of the same compound?
Answer: 1 µg/mL (≈ 0.677 µM)
